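Five compound concentrations were applied to cells in 96-well plates for 48 hours; endpoints were derived by simple linear interpolation of the resulting dose-response curve. GI50 = concentration required for 50% inhibition of growth.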 Activity calls are given as the source filed them. Rule as the data show it: active = GI50 up to about 1.1 µM and inactive = higher.
Key:
Assay in all cases: inhibition of tumour cell growth, NCI panel, 48 h
SNB-78 = tested on: SNB-78
M19-MEL = tested on: M19-MEL
RXF 631 = tested on: RXF 631
U-251 = tested on: U-251
LXFL 529 = tested on: LXFL 529
DLD-1 = tested on: DLD-1
NCI-H522 = tested on: NCI-H522
XF498 = tested on: XF498
HCT-15 = tested on: HCT-15
SF-539 = tested on: SF-539
SF-268 = tested on: SF-268
M14 = tested on: M14
SNB-75 = tested on: SNB-75
NCI-H226 = tested on: NCI-H226
SK-OV-3 = tested on: SK-OV-3
786-0 = tested on: 786-0
LOX IMVI = tested on: LOX IMVI
SW-620 = tested on: SW-620
SF-295 = tested on: SF-295
DMS-273 = tested on: DMS-273
TK-10 = tested on: TK-10
SK-MEL-2 = tested on: SK-MEL-2
SR = tested on: SR
SN12C = tested on: SN12C
A549 = tested on: A549
HCT-116 = tested on: HCT-116
HOP-92 = tested on: HOP-92
RPMI-8226 = tested on: RPMI-8226
IGROV-1 = tested on: IGROV-1
OVCAR-3 = tested on: OVCAR-3
CAKI-1 = tested on: CAKI-1
UACC-62 = tested on: UACC-62
UACC-257 = tested on: UACC-257
UO-31 = tested on: UO-31
EKVX = tested on: EKVX
MOLT-4 = tested on: MOLT-4
HT-29 = tested on: HT-29
ACHN = tested on: ACHN
KM-20L2 = tested on: KM-20L2
CCRF-CEM = tested on: CCRF-CEM
SNB-19 = tested on: SNB-19
K562 = tested on: K562
Malme-3M = tested on: Malme-3M
SK-MEL-28 = tested on: SK-MEL-28
NCI-H23 = tested on: NCI-H23
KM12 = tested on: KM12
HL-60 = tested on: HL-60
HCC 2998 = tested on: HCC 2998
OVCAR-8 = tested on: OVCAR-8
OVCAR-5 = tested on: OVCAR-5
DMS-114 = tested on: DMS-114
RXF 393 = tested on: RXF 393
HOP-62 = tested on: HOP-62
A498 = tested on: A498
NCI-H460 = tested on: NCI-H460
SK-MEL-5 = tested on: SK-MEL-5
OVCAR-4 = tested on: OVCAR-4
COLO 205 = tested on: COLO 205
HOP-18 = tested on: HOP-18

NNC(=O)N/N=C(/CC1(O)C(=O)Nc2ccc(Br)cc21)c1ccccc1 (stereo not drawn)
GI50 (SNB-78): 34.5 µM (inactive)
GI50 (M19-MEL): 32.4 µM (inactive)
GI50 (RXF 631): 38.6 µM (inactive)
GI50 (U-251): > 10 µM (inactive)
GI50 (LXFL 529): 23.4 µM (inactive)
GI50 (DLD-1): 35.9 µM (inactive)
GI50 (NCI-H522): 18.8 µM (inactive)
GI50 (XF498): 18.9 µM (inactive)
GI50 (HCT-15): 61.1 µM
GI50 (SF-539): 23.9 µM (inactive)
GI50 (SF-268): 21.5 µM (inactive)
GI50 (M14): 37.6 µM (inactive)
GI50 (SNB-75): 9.27 µM (inactive)
GI50 (NCI-H226): 82.6 µM (inactive)
GI50 (SK-OV-3): 40.2 µM (inactive)
GI50 (786-0): 57.3 µM (inactive)
GI50 (LOX IMVI): 18.1 µM (inactive)
GI50 (SW-620): 50 µM (inactive)
GI50 (SF-295): 38.6 µM (inactive)
GI50 (DMS-273): 28.4 µM (inactive)
GI50 (TK-10): 55.6 µM (inactive)
GI50 (SK-MEL-2): 34.4 µM (inactive)
GI50 (SR): 31.6 µM (inactive)
GI50 (SN12C): 29.2 µM (inactive)
GI50 (A549): 50 µM (inactive)
GI50 (HCT-116): 27.9 µM (inactive)
GI50 (HOP-92): 18.1 µM (inactive)
GI50 (RPMI-8226): 48.4 µM (inactive)
GI50 (IGROV-1): 41.1 µM (inactive)
GI50 (OVCAR-3): 41.8 µM (inactive)
GI50 (CAKI-1): 30.3 µM (inactive)
GI50 (UACC-62): 19.8 µM (inactive)
GI50 (UACC-257): 77.3 µM (inactive)
GI50 (UO-31): 12.5 µM (inactive)
GI50 (EKVX): 22.7 µM (inactive)
GI50 (MOLT-4): 16.7 µM (inactive)
GI50 (HT-29): 30.6 µM (inactive)
GI50 (ACHN): 24.3 µM (inactive)
GI50 (KM-20L2): 27.9 µM (inactive)
GI50 (CCRF-CEM): 27.1 µM (inactive)
GI50 (SNB-19): 11.8 µM (inactive)
GI50 (K562): 30.5 µM (inactive)
GI50 (Malme-3M): 33.9 µM (inactive)
GI50 (SK-MEL-28): 28.2 µM (inactive)
GI50 (NCI-H23): 29 µM (inactive)
GI50 (KM12): 25.7 µM (inactive)
GI50 (HL-60): 21.9 µM (inactive)

Cc1cccc(-n2c(=S)[nH]c3c(sc(=O)n3-c3ccccc3C)c2=O)c1
GI50 (HCC 2998): > 100 µM (inactive)
GI50 (SNB-78): > 100 µM (inactive)
GI50 (M19-MEL): > 100 µM (inactive)
GI50 (RXF 631): > 100 µM (inactive)
GI50 (U-251): > 100 µM (inactive)
GI50 (LXFL 529): > 100 µM (inactive)
GI50 (DLD-1): > 100 µM (inactive)
GI50 (NCI-H522): > 100 µM (inactive)
GI50 (HCT-15): > 100 µM
GI50 (SF-539): > 100 µM (inactive)
GI50 (SF-268): > 100 µM (inactive)
GI50 (OVCAR-8): > 100 µM (inactive)
GI50 (M14): > 100 µM (inactive)
GI50 (SNB-75): > 100 µM (inactive)
GI50 (NCI-H226): > 100 µM (inactive)
GI50 (SK-OV-3): > 100 µM (inactive)
GI50 (OVCAR-5): > 100 µM (inactive)
GI50 (786-0): > 100 µM (inactive)
GI50 (DMS-114): > 100 µM (inactive)
GI50 (SW-620): > 100 µM (inactive)
GI50 (SF-295): > 100 µM (inactive)
GI50 (DMS-273): > 100 µM (inactive)
GI50 (SK-MEL-2): > 100 µM (inactive)
GI50 (SR): > 100 µM (inactive)
GI50 (SN12C): > 100 µM (inactive)
GI50 (A549): > 100 µM (inactive)
GI50 (HCT-116): > 100 µM (inactive)
GI50 (RXF 393): > 100 µM (inactive)
GI50 (HOP-92): > 100 µM (inactive)
GI50 (RPMI-8226): > 100 µM (inactive)
GI50 (IGROV-1): > 100 µM (inactive)
GI50 (OVCAR-3): > 100 µM (inactive)
GI50 (CAKI-1): > 100 µM (inactive)
GI50 (HOP-62): > 100 µM (inactive)
GI50 (UACC-62): > 100 µM (inactive)
GI50 (UACC-257): > 100 µM (inactive)
GI50 (A498): > 100 µM (inactive)
GI50 (NCI-H460): > 100 µM (inactive)
GI50 (UO-31): > 100 µM (inactive)
GI50 (EKVX): > 100 µM (inactive)
GI50 (SK-MEL-5): > 100 µM (inactive)
GI50 (MOLT-4): > 100 µM (inactive)
GI50 (HT-29): > 100 µM (inactive)
GI50 (ACHN): > 100 µM (inactive)
GI50 (KM-20L2): > 100 µM (inactive)
GI50 (OVCAR-4): > 100 µM (inactive)
GI50 (CCRF-CEM): > 100 µM (inactive)
GI50 (SNB-19): > 100 µM (inactive)
GI50 (K562): > 100 µM (inactive)
GI50 (Malme-3M): > 100 µM (inactive)
GI50 (SK-MEL-28): > 100 µM (inactive)
GI50 (COLO 205): > 100 µM (inactive)
GI50 (HOP-18): > 100 µM (inactive)
GI50 (NCI-H23): > 100 µM (inactive)
GI50 (KM12): > 100 µM (inactive)
GI50 (HL-60): > 100 µM (inactive)

Reference: ChEMBL document CHEMBL1201862, “PubChem BioAssay data set” (2004)
